Results reported in ChEMBL document CHEMBL1201862, “PubChem BioAssay data set” (2004).
Activity calls are given as the source filed them.

Assays:
[1] = A cytotoxicity screen of small molecule inhibitors of the PhoP region in Salmonella typhi identified in the primary screen. [Related pubchem assays: 1850, 1864, 1985 ]; assay type: functional
Leucine aminopeptidase = target: T1, Leucine aminopeptidase (Plasmodium falciparum 3D7, UniProt Q8IL11); assay: P. falciparum M17LAP inhibitors, primary screen, biochemical, fluorogenic H-Leu-NHMec substrate, 1536-well (AID 1619); assay type: functional
T1 sequence (Q8IL11 whole entry): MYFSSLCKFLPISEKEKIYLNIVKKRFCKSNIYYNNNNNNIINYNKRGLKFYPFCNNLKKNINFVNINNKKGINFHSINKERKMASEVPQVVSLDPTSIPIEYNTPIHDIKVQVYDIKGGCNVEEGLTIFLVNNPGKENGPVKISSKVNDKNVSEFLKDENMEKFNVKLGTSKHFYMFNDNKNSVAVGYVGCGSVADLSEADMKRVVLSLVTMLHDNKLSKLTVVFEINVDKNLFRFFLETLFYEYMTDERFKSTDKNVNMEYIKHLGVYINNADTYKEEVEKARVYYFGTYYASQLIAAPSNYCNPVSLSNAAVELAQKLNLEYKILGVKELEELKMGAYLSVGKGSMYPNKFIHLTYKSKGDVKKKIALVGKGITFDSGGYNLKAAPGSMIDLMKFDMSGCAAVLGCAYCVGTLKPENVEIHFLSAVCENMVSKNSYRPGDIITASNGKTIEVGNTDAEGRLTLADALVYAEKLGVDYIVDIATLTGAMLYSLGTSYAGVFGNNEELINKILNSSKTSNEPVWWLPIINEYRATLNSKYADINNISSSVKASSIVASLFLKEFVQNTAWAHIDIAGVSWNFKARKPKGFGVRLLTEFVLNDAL

[2] = target: T2, Short transient receptor potential channel 4 (Mus musculus, UniProt Q9QUQ5); assay: block of DAMGO-driven TRPC4 calcium entry – cell-based, HEK293 TRPC4/mu-opioid, Fluo-4 calcium, dose response (AID 434942); assay type: functional;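 note: potency of inhibitors blocking the TRPC4 calcium response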
T2 sequence (Q9QUQ5 whole entry): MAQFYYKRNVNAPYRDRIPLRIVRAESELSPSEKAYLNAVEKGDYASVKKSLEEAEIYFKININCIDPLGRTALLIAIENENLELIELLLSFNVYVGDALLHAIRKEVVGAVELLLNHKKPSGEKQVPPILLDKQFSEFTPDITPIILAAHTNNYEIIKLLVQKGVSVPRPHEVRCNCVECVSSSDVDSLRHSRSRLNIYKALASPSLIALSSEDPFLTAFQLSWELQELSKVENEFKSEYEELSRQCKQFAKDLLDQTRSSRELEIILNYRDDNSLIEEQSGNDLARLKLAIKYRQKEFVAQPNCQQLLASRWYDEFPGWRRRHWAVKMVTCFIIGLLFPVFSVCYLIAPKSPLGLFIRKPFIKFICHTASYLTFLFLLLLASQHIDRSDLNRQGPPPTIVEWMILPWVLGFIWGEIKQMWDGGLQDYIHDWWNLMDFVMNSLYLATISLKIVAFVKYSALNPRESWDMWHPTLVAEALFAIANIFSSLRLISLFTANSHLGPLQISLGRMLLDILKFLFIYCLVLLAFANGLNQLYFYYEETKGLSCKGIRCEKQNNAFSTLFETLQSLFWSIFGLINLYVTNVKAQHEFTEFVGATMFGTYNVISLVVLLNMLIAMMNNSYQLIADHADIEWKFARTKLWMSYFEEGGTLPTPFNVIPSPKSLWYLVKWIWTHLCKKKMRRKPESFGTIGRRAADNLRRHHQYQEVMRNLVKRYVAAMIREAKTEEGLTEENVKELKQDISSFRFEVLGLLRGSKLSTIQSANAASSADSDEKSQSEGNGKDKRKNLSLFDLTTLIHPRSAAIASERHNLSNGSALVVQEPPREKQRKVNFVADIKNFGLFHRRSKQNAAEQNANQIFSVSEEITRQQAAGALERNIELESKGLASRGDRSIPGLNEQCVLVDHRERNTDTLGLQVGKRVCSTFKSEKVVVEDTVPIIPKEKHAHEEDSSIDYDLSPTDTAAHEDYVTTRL

[3] = target: T3, Sentrin-specific protease 6 (Homo sapiens, UniProt Q9GZR1); assay type: functional;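 note: Luminescence-based dose-response confirmatory assay of SENP6 inhibition, following up an ultra-high-throughput screen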
T3 sequence (Q9GZR1 whole entry): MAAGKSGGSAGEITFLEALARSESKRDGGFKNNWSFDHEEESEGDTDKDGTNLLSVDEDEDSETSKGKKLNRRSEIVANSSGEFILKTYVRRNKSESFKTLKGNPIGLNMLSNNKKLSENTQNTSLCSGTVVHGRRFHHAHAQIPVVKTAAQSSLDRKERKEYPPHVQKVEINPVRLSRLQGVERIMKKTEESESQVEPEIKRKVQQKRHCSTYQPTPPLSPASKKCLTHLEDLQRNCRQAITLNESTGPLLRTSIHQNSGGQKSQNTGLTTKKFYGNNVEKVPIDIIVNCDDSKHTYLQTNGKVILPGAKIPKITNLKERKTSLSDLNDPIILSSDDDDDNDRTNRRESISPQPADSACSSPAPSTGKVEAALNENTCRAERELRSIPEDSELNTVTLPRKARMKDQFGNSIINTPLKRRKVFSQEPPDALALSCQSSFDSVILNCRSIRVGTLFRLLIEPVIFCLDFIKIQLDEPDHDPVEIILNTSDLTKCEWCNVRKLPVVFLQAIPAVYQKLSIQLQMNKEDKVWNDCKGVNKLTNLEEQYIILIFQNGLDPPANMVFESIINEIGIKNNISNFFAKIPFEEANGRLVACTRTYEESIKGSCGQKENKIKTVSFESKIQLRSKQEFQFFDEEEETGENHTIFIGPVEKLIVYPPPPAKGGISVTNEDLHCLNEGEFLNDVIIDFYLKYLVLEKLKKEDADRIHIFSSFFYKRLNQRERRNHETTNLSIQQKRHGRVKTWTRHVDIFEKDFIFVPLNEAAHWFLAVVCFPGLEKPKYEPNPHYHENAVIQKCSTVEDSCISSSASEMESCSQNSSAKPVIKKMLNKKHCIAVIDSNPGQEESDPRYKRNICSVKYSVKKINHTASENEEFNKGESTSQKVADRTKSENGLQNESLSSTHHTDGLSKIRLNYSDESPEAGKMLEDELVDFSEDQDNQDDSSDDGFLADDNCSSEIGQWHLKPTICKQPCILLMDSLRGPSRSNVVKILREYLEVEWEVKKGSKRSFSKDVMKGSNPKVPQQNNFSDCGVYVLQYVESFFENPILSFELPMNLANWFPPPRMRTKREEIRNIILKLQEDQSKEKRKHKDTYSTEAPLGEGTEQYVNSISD

[4] = target: T4, Sentrin-specific protease 7 (Homo sapiens, UniProt Q9BQF6); assay type: functional;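 note: Luminescence-based dose-response confirmation of ultra-high-throughput screening hits, measuring inhibition of SENP7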
T4 sequence (Q9BQF6 whole entry): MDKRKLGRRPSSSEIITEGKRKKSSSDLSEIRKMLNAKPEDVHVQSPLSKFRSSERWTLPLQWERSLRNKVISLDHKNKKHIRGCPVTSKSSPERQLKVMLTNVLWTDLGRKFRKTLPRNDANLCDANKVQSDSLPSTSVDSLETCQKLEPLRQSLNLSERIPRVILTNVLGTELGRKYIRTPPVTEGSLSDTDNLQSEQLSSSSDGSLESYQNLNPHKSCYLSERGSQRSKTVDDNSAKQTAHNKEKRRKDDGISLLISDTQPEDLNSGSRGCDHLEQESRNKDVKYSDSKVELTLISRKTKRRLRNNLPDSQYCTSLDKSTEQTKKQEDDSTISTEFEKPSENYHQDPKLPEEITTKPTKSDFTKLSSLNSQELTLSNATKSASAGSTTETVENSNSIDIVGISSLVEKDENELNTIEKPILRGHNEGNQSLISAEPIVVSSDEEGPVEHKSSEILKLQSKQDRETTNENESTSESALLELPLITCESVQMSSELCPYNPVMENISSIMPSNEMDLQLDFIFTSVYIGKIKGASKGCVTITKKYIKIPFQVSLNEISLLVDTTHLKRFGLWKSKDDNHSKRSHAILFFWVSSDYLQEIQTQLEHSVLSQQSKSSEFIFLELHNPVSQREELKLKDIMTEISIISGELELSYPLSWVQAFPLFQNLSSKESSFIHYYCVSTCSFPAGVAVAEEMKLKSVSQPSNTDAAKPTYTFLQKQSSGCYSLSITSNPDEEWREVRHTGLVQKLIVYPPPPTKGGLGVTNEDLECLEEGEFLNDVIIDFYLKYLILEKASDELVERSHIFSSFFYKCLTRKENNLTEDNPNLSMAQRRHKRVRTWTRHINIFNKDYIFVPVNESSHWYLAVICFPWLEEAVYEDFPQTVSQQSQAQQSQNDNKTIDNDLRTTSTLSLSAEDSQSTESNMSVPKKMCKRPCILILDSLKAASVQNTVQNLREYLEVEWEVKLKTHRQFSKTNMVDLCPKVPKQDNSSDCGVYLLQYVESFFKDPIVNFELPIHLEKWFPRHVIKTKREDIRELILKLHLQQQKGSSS

[5] = target: T5, Sentrin-specific protease 8 (Homo sapiens, UniProt Q96LD8); assay type: functional;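 note: luminescence read-out of SENP8 inhibition, dose-response confirmation following an ultra-high-throughput screen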
T5 sequence (Q96LD8 whole entry): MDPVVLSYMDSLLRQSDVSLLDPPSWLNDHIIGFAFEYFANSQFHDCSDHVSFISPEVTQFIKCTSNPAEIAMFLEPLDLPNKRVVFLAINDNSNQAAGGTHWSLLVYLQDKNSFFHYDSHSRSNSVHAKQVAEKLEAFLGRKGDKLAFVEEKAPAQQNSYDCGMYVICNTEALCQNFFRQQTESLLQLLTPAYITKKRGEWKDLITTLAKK

[6] = viability of uninfected HEp-2 cells – cell-based, HTS, cytotoxicity control for RSV inhibitor project, dose response (AID 2410); assay type: functional; settings: human respiratory syncytial virus
Caspase-3 = target: T6, Caspase-3 (Homo sapiens, UniProt P42574); assay type: functional;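 note: Dose-response selectivity test against caspase-3 for candidate inhibitors of sentrin-specific proteases (SENPs)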
T6 sequence (P42574 whole entry): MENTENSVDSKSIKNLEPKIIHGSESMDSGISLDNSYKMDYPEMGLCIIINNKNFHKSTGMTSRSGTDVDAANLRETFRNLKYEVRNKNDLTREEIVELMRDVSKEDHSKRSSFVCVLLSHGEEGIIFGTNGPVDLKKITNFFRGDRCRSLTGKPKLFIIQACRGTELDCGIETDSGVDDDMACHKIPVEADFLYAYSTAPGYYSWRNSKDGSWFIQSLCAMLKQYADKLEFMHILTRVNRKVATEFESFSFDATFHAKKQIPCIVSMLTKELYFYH

[7] = microbe, parasite or virus in culture; assay type: functional; settings: Mycobacterium tuberculosis
Nonstructural protein 1 = Nonstructural protein 1 (Influenza A virus, UniProt Q194T2); assay type: functional, Influenza A virus (A/California/07/2009(H1N1))
Sequence of Nonstructural protein 1 (Q194T2 whole entry): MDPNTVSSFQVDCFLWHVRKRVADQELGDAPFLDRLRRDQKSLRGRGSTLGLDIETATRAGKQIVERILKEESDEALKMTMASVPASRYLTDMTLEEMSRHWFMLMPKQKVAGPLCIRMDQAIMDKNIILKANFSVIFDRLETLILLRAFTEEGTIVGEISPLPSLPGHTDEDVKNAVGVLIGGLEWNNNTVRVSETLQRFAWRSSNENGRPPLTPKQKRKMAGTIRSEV

## CSC1=NC2(C)CCCCC2C12C=CC(=O)C=C2 (stereo not given)
[1]
  EC50: > 50 µM (active)

## CC(C)(C)c1cc(NC(=O)c2cc(F)c(F)c(F)c2F)no1
cells
  IC50: 41.2 µM (active)

## Cc1cc(Cl)ccc1OCC(=O)N/N=C/c1ccncc1
[1]
  EC50: > 50 µM (active)

## N#Cc1nc(COc2ccc(Br)cc2)oc1NCCCn1ccnc1
[1]
  EC50: > 50 µM (active)

## COC(=O)c1cc(NC(=O)C2CC=CCC2C(=O)O)cc(C(=O)OC)c1 (stereo not given)
Leucine aminopeptidase
  IC50: 28.6 µM (active)

## OCC1(CCc2ccccc2)CCN(Cc2cc(Cl)ccc2O)CC1
[2]
  EC50: 9.44 µM (active)

## O=C(c1ccc(Cl)c(Cl)c1)N(Cc1ccco1)c1ccc(O)cc1
[2]
  EC50: 8.41 µM (active)

## Cc1cc(C)nc(N=C(N)NC2CCCCC2)n1
[2]
  EC50: 4.22 µM (active)

## O=S(=O)(Nc1cccc2nsnc12)c1ccccc1
Leucine aminopeptidase
  IC50: 15.5 µM (active)

## CN(C)C(=O)COC(=O)c1ccccc1Nc1ccc(SC(F)F)cc1
cells
  IC50: 4.77 µM (active)
[3]
  IC50: 12.8 µM (active)
[4]
  IC50: 4.9 µM (active)
[5]
  IC50: 17.8 µM (active)
[6]
  CC50: 8.89 µM (active)
Caspase-3
  IC50: 28.2 µM (active)

## O=C(CSc1nc[nH]n1)Nc1ncc(C(F)(F)F)cc1Cl
Leucine aminopeptidase
  IC50: 19.6 µM (active)

## Cc1ccc(-c2nc3c(c(=O)c4ccccc4n3C)c(=O)n2Cc2ccco2)cc1
cells
  IC50: 5.74 µM (active)
[7]
  CC50: 38.3 µM (active)

## O=C1NCCCC1C(=O)N/N=C/c1cc([N+](=O)[O-])ccc1O (stereo not given)
Nonstructural protein 1
  IC50: 16.8 µM (active)
[1]
  EC50: > 50 µM (active)

## O=C(O)Cn1cc(/C=C2/NC(=O)N(c3ccc(Cl)cc3)C2=O)c2ccccc21
Leucine aminopeptidase
  IC50: 11.9 µM (active)

## COc1ccc(Cn2nnnc2C(c2cc3ccc(OC)cc3nc2O)N2CCC(C)CC2)cc1 (stereo not given)
[1]
  EC50: > 50 µM (active)

## Fc1ccc(CN2CCC(Cc3ccccc3)CC2)cc1F
[2]
  EC50: 4.73 µM (active)

## Cc1ccccc1-n1c(C)nnc1SCc1cc(=O)oc2ccc3ccccc3c12
cells
  IC50: > 50 µM (active)
[6]
  CC50: > 50 µM (active)
